Entries after “also recorded” stand apart in the source; their conditions may differ. Where two headings read alike, the source gives them in different places.

For one experiment, the system named is MDCK. Briefly: Toxicity against normal cell line MDCK. In kind it is cell-based. An excerpt:
Fourteen compounds including aminoxy acid monomers and dipeptides have been identified to show toxicity against HEY A8 CSCs. The half maximal inhibitory concentration (IC50) values of compounds sff-2-112, sff-2-124, sff-2-132 and sff-2-100 towards adherent cancer HEY A8, SKOV3 cells and CSCs were further determined. […] Especially compound sff-2-132, its selectivity to CSCs is up to 60-fold higher than that to cancer cells. Their toxicity against other normal cell lines NIH3T3, HEK293 and MDCK were also tested and the IC50 values were summarized in Table 1.

The subject of experiment [1] is HEY A8 cells. Briefly: Sphere formation in suspension culture after treatment. In kind it is cell-based, human. Particulars: 15 or 30 μM for 48 h, 3 days recovery, 5 days sphere formation. The procedure: Hey A8 cells were treated with compounds DMSO sff-2-112 (“Example 1”) or sff-2-132 (“Example 4”) at the concentration of 15 or 30 μM for 48 h. Then cells were allowed to recover and grow in full medium in cell culture dishes for 3 days. After that, cells at the density of 5×10^4 cells/mL were transferred into low attachment dishes for 5 days to allow sphere formation. The number of spheres in each dish were counted.

Experiment [2] has as its system HEY A8 cells. Briefly: Superoxide production (HKSOX-2m fluorescence). The note with it: 5 μM, within 30 min. In kind it is cell-based, human. The procedure: The ability of compound sff-2-112 (“Example 1”) or sff-2-132 (“Example 4”) to induce ROS production was also evaluated on HEY A8 cells (FIG. 9). The ROS production was monitored by superoxide fluorescent probe HKSOX-2m. The increase in fluorescence intensity indicated superoxide production. (n=50-100 cells).
A suspension of HEY A8 cells at the concentration of 5×10^4 cells/mL in DMEM medium were seeded into 30-mm cell culture dishes with glass bottom (MatTek). Cells were incubated at 37° C. in a humidified atmosphere containing 5% CO2 for 24 h. Medium was aspirated and cells was washed with PBS buffer twice. Then 1 mL HBSS buffer containing 4 μM HKSOX-2m was added. Cells were incubated at 37° C. for 30 min before the buffer was aspirated and washed twice with HBSS buffer. Cells were imaged in 0.8 mL HBSS buffer. Fluorescence was monitored by confocal microscope (ZEISS LSM 710; Red channel: λex=543 nm). At t=180 s, compound in 0.2 mL HBSS buffer was added to give the final concentration of 5 μM. Quantitative data were obtained using the ZEN and GraphPad Prism software.

A further experiment deals with Adherent Hey A8 cells. Briefly: Cell respiration, oxygen consumption rate (Seahorse XF24). In kind it is cell-based, human. Particulars: FIG. 10; for cell respiration response to subsequent addition of FCCP, antimycin A and rotenone: more obvious at higher doses. How it is done: Cell respiration was measured by using an XF24 Extracellular Flux Analyzer (Seahorse, Bioscience), which measures the oxygen consumption rate (OCR). Adherent Hey A8 cells were seeded at 50000 cells/well in […] of their culture medium and incubated for 24 h at 37° C. in humidified atmosphere with 5% CO2. The medium was then replaced with 670 μL/well of high-glucose DMEM without serum and supplemented with 1 mM sodium pyruvate and 2 mM L-glutamine. The oxygen consumption rate (OCR) was measured with an extracellular flux analyzer (Seahorse) at preset time intervals upon the preprogrammed additions of the following compounds: Oligomycin to 1 μM, FCCP to 500 nM, Antimycin A and Rotenone to 0.5 μM final concentrations.

The subject of another experiment is HEY A8 CSCs. Briefly: Immunoblotting of apoptosis associated proteins PARP, Caspase 3, Caspase 9. In kind it is cell-based, human. The note with it: 48 h; CSCs at 10-fold lower concentration than cancer cells. How it is done:
For immunostaining experiment, cells were treated with compound sff-2-112 (“Example 1”) or compound sff-2-132 (“Example 4”) at different concentration for 48 h, then washed twice with PBS buffer and lysed with 2×SDS buffer with 0.1% Benzonase. Protein extracts were quantified by Pierce BCA Protein Assay Kit with a Nanodrop 2000 (Thermo Fisher Scientific) according to the manufacture's instruction. Protein lysates (˜50 μg/lane) were resolved by SDS-PAGE and transferred onto PVDF membranes. Membranes were incubated with membrane blocking solution (Thermo Fisher Scientific) for 1 h. The blots were then probed with the relevant primary antibodies in blocking solution at 4° C. overnight with gentle agitation. Membranes were washed with 0.1% Tween 20/TBS for 5 min three times and were incubated with Horseradish Peroxidase (HRP) conjugated secondary antibodies for 1 h at room temperature. Antigens were detected by SuperSignal West Pico PLUS Chemiluminescent Substrate (Thermo Fisher Scientific). Imaging was performed using a ChemiDoc™ XRS+ System (Bio-Rad).

In turn, `O=C(NO[C@H](COCc1ccccc1)C(=O)Nc1ccccc1)c1cc(C(F)(F)F)cc(C(F)(F)F)c1` [sff-2-112] had an IC50 in the experiment with MDCK of 25.1 ± 1.1 µM. Moreover, the “sphere forming ability / number of spheres relative to controls” value with HEY A8 cells [1] is reported as “significant decrease in the number of spheres; also recorded: significantly reduced sphere forming ability”. The “increasement of superoxide production” value with HEY A8 cells [2] is on record as “about 2 fold”. In the experiment on Adherent Hey A8 cells, the “OCR after addition of compound” value was “OCR immediately increased”; the “cell respiration response to subsequent addition of FCCP, antimycin A and rotenone” value is recorded as “significantly decreased”. Moreover, in the experiment on HEY A8 CSCs, the “activation of PARP1, Caspase 3 and Caspase 9” value is “activation of protein PARP1, Caspase 3 and Caspase 9 was also observed in CSCs”.
Consider `CC(C)(C)OC(=O)[C@@H](COCc1ccccc1)ONC(=O)c1cc(C(F)(F)F)cc(C(F)(F)F)c1` [sff-2-132], for which the IC50 in the experiment on MDCK (Canis lupus familiaris, MDCK) amounted to 49.1 ± 0.4 µM. The “sphere forming ability / number of spheres relative to controls” value in the experiment on HEY A8 cells [1] is “significant decrease in the number of spheres; also recorded: significantly reduced sphere forming ability”. The “increasement of superoxide production” value in the experiment on HEY A8 cells [2] was “about 2 fold”. Moreover, in the experiment on Adherent Hey A8 cells, the “OCR after addition of compound” value is recorded as “OCR immediately increased”; the “cell respiration response to subsequent addition of FCCP, antimycin A and rotenone” value was “significantly decreased”. Further, in the experiment on HEY A8 CSCs, the “activation of PARP1, Caspase 3 and Caspase 9” value was “activation of protein PARP1, Caspase 3 and Caspase 9 was also observed in CSCs”.

Source of the values: US12539284B2, “Aminoxy acid-based anti-cancer stem cell compounds and methods thereof” (Westlake University, priority 2019, dated 2026).
